# Target: human NaV 1.8 channels stably expressed in HEK 293 cells (Homo sapiens (Human), UniProt Q9Y5Y9)
# Experiment: Nav1.8 Qube automated patch-clamp assay
# Type: cell-based
# Details: human NaV1.8 in HEK 293 cells, whole-cell voltage clamp, room temperature; read-out: IC50 values (nM) for Examples in the Nav1.8 Qube Assay
# How it was run: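 Whole-cell voltage clamp at room temperature on HEK293 cells; from −90 mV, a 10 s 1 Hz train of 20 ms pulses to 10 mV (repolarising to −67 mV) was applied. Peak currents at pulses 1 and 10 gave resting- and inactivated-state inhibition; IC50 fitted by Hill equation. Internal CsF/CsCl buffer.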
# Sequence of human NaV 1.8 channels stably expressed in HEK 293 cells (Q9Y5Y9 whole entry): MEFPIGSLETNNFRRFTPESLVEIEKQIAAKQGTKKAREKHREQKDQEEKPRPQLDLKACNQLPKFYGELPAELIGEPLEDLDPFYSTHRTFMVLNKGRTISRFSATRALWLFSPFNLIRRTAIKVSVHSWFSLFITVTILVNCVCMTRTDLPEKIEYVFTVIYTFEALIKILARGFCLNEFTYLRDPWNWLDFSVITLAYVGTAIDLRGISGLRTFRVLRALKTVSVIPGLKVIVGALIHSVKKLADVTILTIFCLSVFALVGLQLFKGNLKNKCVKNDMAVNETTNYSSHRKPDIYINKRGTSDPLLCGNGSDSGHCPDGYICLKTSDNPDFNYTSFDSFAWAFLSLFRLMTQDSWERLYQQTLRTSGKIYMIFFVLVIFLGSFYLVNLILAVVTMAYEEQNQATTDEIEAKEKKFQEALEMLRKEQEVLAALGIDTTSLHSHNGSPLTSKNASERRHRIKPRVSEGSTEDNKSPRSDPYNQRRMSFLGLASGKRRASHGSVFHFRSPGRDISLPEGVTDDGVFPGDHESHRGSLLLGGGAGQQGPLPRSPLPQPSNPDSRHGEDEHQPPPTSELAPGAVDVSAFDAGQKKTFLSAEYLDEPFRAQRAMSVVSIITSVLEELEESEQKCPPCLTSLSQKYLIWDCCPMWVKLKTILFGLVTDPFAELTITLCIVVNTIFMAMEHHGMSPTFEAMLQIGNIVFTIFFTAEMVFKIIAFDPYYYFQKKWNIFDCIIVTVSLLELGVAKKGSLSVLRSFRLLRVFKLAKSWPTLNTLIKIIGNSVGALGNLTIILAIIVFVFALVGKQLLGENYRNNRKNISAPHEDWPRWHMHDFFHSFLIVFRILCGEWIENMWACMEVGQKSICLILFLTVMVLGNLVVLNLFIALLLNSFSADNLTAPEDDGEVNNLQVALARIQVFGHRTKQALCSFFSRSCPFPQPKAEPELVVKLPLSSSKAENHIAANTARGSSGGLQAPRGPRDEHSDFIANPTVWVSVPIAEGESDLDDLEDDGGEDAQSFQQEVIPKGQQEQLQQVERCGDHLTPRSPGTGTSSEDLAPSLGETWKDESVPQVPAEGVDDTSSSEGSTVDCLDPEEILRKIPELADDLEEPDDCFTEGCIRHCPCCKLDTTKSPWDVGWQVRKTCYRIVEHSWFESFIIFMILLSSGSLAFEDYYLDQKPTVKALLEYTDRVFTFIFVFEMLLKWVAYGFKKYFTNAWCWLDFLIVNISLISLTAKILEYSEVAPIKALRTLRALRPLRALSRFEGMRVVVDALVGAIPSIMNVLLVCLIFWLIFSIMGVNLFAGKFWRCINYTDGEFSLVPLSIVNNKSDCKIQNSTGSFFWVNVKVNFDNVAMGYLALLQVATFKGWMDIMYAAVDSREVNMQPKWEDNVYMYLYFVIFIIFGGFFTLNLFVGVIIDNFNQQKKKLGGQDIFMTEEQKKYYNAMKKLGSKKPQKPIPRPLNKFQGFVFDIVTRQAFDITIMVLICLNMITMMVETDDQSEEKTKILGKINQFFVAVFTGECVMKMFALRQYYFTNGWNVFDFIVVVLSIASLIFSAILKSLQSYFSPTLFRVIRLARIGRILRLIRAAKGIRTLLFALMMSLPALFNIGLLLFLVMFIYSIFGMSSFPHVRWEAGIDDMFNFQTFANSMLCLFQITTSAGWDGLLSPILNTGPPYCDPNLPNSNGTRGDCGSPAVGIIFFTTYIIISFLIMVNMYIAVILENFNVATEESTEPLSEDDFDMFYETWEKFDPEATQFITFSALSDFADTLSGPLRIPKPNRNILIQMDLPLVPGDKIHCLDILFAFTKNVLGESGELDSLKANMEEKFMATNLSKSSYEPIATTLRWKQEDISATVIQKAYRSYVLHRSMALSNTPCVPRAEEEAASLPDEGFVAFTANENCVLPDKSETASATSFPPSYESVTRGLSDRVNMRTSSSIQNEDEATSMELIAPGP
row,Structure (SMILES),IC50 [nM]
1,"C[C@@H]1C(=O)NCCN1C(=O)NC(c1cnc(C(F)(F)F)nc1)c1ccc(F)c(Cl)c1 (single isomer, unassigned) [Example 69B, (2R)-N-((S or R)-(3-chloro-4-fluorophenyl)(2-(trifluoromethyl)pyrimidin-5-yl)methyl)-2-methyl-3-oxopiperazine-1-carboxamide]",23
2,"C[C@@H]1C(=O)NCCN1C(=O)NC(c1ccc(F)c(Cl)c1)c1ccc(F)c(OCC(F)(F)F)n1 (single isomer, unassigned) [Example 70A]",51.4
3,"C[C@@H]1C(=O)NCCN1C(=O)NC(c1ccc(F)c(Cl)c1)c1ccc(F)c(OCC(F)(F)F)n1 (single isomer, unassigned) [Example 70B]",6.87
4,"C[C@@H]1C(=O)NCCN1C(=O)NC(c1ccnc(OCC(F)(F)F)c1)c1ccc(F)c(Cl)c1 (single isomer, unassigned) [Example 71A, (2R)-N-((R or S)-(3-chloro-4-fluorophenyl)(2-(2,2,2-trifluoro-ethoxy)pyridin-4-yl)methyl)-2-methyl-3-oxopiperazine-1-carboxamide]",82.6
5,"C[C@@H]1C(=O)NCCN1C(=O)NC(c1ccnc(OCC(F)(F)F)c1)c1ccc(F)c(Cl)c1 (single isomer, unassigned) [Example 71B, (2R)-N-((S or R)-(3-chloro-4-fluorophenyl)(2-(2,2,2-trifluoro-ethoxy)pyridin-4-yl)methyl)-2-methyl-3-oxopiperazine-1-carboxamide]",2.76
6,"C[C@@H]1C(=O)NCCN1C(=O)NC(c1ccc(F)c(Cl)c1)c1cccc(OC(F)F)n1 (single isomer, unassigned) [Example 72A]",195
7,"C[C@@H]1C(=O)NCCN1C(=O)NC(c1ccc(F)c(Cl)c1)c1cccc(OC(F)F)n1 (single isomer, unassigned) [Example 72B]",25.3
8,"C[C@@H]1C(=O)NCCN1C(=O)NC(c1ccc(OC(F)F)nc1)c1ccc(F)c(Cl)c1 (single isomer, unassigned) [Example 73A, (2R)-N-((R or S)-(3-chloro-4-fluorophenyl)(6-(difluoromethoxy)pyridin-3-yl)methyl)-2-methyl-3-oxopiperazine-1-carboxamide]",7.01
9,"C[C@@H]1C(=O)NCCN1C(=O)NC(c1ccc(OC(F)F)nc1)c1ccc(F)c(Cl)c1 (single isomer, unassigned) [Example 73B, (2R)-N-((R or S)-(3-chloro-4-fluoro-phenyl)(6-(difluoro-methoxy)pyridin-3-yl)methyl)-2-methyl-3-oxopiperazine-1-carboxamide]",20.6
10,"C[C@@H]1C(=O)NCCN1C(=O)NC(c1cnc(OC(F)F)nc1)c1ccc(F)c(Cl)c1F (single isomer, unassigned) [Example 74A, (2R)-N-((R or S)-(3-chloro-2,4-difluoro-phenyl)(2-(difluoro-methoxy)pyrimidin-5-yl)methyl)-2-methyl-3-oxopiperazine-1-carboxamide]",71.1
11,"C[C@@H]1C(=O)NCCN1C(=O)NC(c1cnc(OC(F)F)nc1)c1ccc(F)c(Cl)c1F (single isomer, unassigned) [Example 74B, (2R)-N-((S or R)-(3-chloro-2,4-difluorophenyl)(2-(difluoromethoxy)pyrimidin-5-yl)methyl)-2-methyl-3-oxopiperazine-1-carboxamide]",1320
12,"C[C@@H]1C(=O)NCCN1C(=O)NC(c1ccc(C(C)(F)F)nc1)c1ccc(F)c(Cl)c1F (single isomer, unassigned) [Example 75A]",89.5
13,"C[C@@H]1C(=O)NCCN1C(=O)NC(c1ccc(C(C)(F)F)nc1)c1ccc(F)c(Cl)c1F (single isomer, unassigned) [Example 75B]",2.95
14,"C[C@@H]1C(=O)NCCN1C(=O)NC(c1ccc(C#N)cc1)c1ccc(Cl)c(C(F)(F)F)n1 (single isomer, unassigned) [Example 76A]",5.18
15,"C[C@@H]1C(=O)NCCN1C(=O)NC(c1ccc(C#N)cc1)c1ccc(Cl)c(C(F)(F)F)n1 (single isomer, unassigned) [Example 76B]",167
16,"C[C@@H]1C(=O)NCCN1C(=O)NC(c1ccc(Cl)c(C(F)(F)F)n1)c1ccc(F)c(Cl)c1F (single isomer, unassigned) [Example 77A, (2R)-N-((R or S)-(3-chloro-2,4-difluorophenyl)(5-chloro-6-(trifluoromethyl)pyridin-2-yl)methyl)-2-methyl-3-oxopiperazine-1-carboxamide]",4.59
17,"C[C@@H]1C(=O)NCCN1C(=O)NC(c1ccc(Cl)c(C(F)(F)F)n1)c1ccc(F)c(Cl)c1F (single isomer, unassigned) [Example 77B, (2R)-N-((S or R)-(3-chloro-2,4-difluorophenyl)(5-chloro-6-(trifluoromethyl)pyridin-2-yl)methyl)-2-methyl-3-oxopiperazine-1-carboxamide]",1.06
18,"O=C1CN(C(=O)NC(c2ccc(Cl)c(C(F)(F)F)n2)c2ccc(F)c(Cl)c2F)CCN1 (single isomer, unassigned) [Example 78A, N-((R or S)-(3-chloro-2,4-difluorophenyl)(5-chloro-6-(trifluoro-methyl)pyridin-2-yl)methyl)-3-oxopiperazine-1-carboxamide]",15.3
19,"O=C1CN(C(=O)NC(c2ccc(Cl)c(C(F)(F)F)n2)c2ccc(F)c(Cl)c2F)CCN1 (single isomer, unassigned) [Example 78B, N-((S or R)-(3-chloro-2,4-difluorophenyl)(5-chloro-6-(trifluoro-methyl)pyridin-2-yl)methyl)-3-oxopiperazine-1-carboxamide]",3.54
20,"C[C@@H]1C(=O)NCCN1C(=O)NC(c1ccc(F)c(Cl)c1)c1ccc(Cl)c(C(F)(F)F)n1 (single isomer, unassigned) [Example 79, (2R)-N-((R or S)-(3-chloro-4-fluoro-phenyl)(5-chloro-6-(trifluoromethyl)pyridin-2-yl)methyl)-2-methyl-3-oxopiperazine-1-carboxamide]",0.58
21,"O=C1CN(C(=O)NC(c2ccc(F)c(Cl)c2)c2ccc(Cl)c(C(F)(F)F)n2)CCN1 (single isomer, unassigned) [Example 80, N-((R or S)-(3-chloro-4-fluorophenyl)(5-chloro-6-(trifluoromethyl)pyridin-2-yl)methyl)-3-oxopiperazine-1-carboxamide]",1.9
22,"C[C@@H]1C(=O)NCCN1C(=O)NC(c1ccc(C(F)(F)F)nc1)c1ccc(Cl)c(C(F)(F)F)n1 (single isomer, unassigned) [Example 81A, (2R)-N-((R or S)-(5-chloro-6-(trifluoromethyl)pyridin-2-yl)(6-(trifluoro-methyl)pyridin-3-yl)methyl)-2-methyl-3-oxopiperazine-1-carboxamide]",8
23,"C[C@@H]1C(=O)NCCN1C(=O)NC(c1ccc(C(F)(F)F)nc1)c1ccc(Cl)c(C(F)(F)F)n1 (single isomer, unassigned) [Example 81B, (2R)-N-((S or R)-(5-chloro-6-(trifluoromethyl)pyridin-2-yl)(6-(trifluoro-methyl)pyridin-3-yl)methyl)-2-methyl-3-oxopiperazine-1-carboxamide]",110
24,"C[C@@H]1C(=O)NCCN1C(=O)NC(c1cnc(C(F)(F)F)c(Cl)c1)c1ccc(F)c(C(F)(F)F)n1 (single isomer, unassigned) [Example 82A]",17.4
